US20040097544A1, “Use of an inhibitor of the Na+/H+ exchanger for the production of a medicament for the treatment or prophylaxis of disturbances of the central nervous system” (Hoechst Marion Roussel Deutschland GMBH, priority 1997, published 2004)

Test system: CA3 neurons of the hippocampus
Experiment: Decrease in neuronal excitability on hippocampus slice preparations of CA3 neurons, intracellular leads
Format: cell-based, guinea-pigs
Protocol: In the model of CA3 neurons in hippocampus tissue slices, NHE inhibitors with their antiepileptic and antipsychotic therapy potential inhibit epileptiform discharges. Hyperexcitability of neurons in the form of so-called epileptiform discharges was triggered by the action of bicuculline, caffeine or low magnesium concentrations. […] The decrease in neuronal excitability was tested on slice preparations of CA3 neurons of the hippocampus (guinea-pigs). The excitation-inhibiting action of cariporide (HOE 642) was investigated in 8 experiments. The neuronal excitability was assessed with intracellular leads with the aid of the spontaneous bioelectric activity and the pharmacologically produced epileptiform activity which had been induced by bicuculline, caffeine or absence of magnesium.

Compound: CC(C)c1ccc(C(=O)NC(=N)N)cc1S(C)(=O)=O [cariporide]
- inhibition of the epileptiform discharges (CA3 neurons in hippocampus tissue slices, discharges triggered by bicuculline, caffeine or low magnesium concentrations): marked inhibition
- duration of the reduction of spontaneous action potential and paroxysmal depolarization frequency (after wash-in of 0.1-0.5 mM cariporide): more than 45 minutes
- reduction of the frequency of the spontaneous action potentials (after wash-in of 0.1-0.5 mM cariporide, reversible, 8 experiments): 30-80%
- reduction of the frequency of periodic paroxysmal depolarization (after wash-in of 0.1-0.5 mM cariporide, reversible, epileptiform activity induced by bicuculline, caffeine or absence of magnesium, 8 experiments): 30-80%
